# In article PMC9289467, “A Novel Multifunctional 5,6-Dimethoxy-Indanone-Chalcone-Carbamate Hybrids Alleviates Cognitive Decline in Alzheimer’s Disease by Dual Inhibition of Acetylcholinesterase and Inflammation” (Frontiers in Aging Neuroscience, 2022):
# Molecular target: T1, AChE-induced Aβ40 fibril formation (Homo sapiens, UniProt P22303)
# T1 construct: purchased Roche (AChE); Invitrogen (Aβ40) R005282 (AChE); 03-136 (Aβ40)
# Test: ThT kinetics of AChE-induced Aβ40 fibril formation
# Type: biochemical
# Details: co-incubation of AP5 and Aβ40 with AChE, 24-h kinetic ThT assay
# Method: The effects of AP5 on Aβ fibril formation and pre-formed Aβ fibrils disaggregation were determined using a previously described method of Thioflavin T (ThT, T3516, Sigma Aldrich, St. Louis, MO, United States) fluorometry ([Jan et al., 2010]).
# Supplementary materials and methods … ...1 […]
# Supplementary Figure 1 … .....7
# Supplementary Figure 2 … .....7
# Supplementary materials and methods
# Prepations ofspecimen for pharmacokinetics analysis
# 24 h afterdosing. Brains were collected at0, 0.25, 0.5,2, 4,8 and 24 h after administration.Plasma extractions were performed by adding 90 μL methanol and 2 μL internalstandard letrozole (500 ng/mL) to a30 µL plasma sample. […]
# Then 90 μL methanol and 2 μL letrozolewere added to 30 µl brainhomogenates. The samples were vortexed for 3 min and centrifuged 15 min at25,000 g.The plasma and brainhomogenate were analyzed by UPLC-TSQ/MS (Thermo Fisher Scientific, Waltham, MA, USA). […]
# To study the kinetics of Aβ-AChE fibril complex formation, 10 μM Aβ was mixed with AChE (R005282, Roche, Basel, Switzerland) and different concentrations AP5 and incubated with 10 μM ThT and 50 mM glycine-NaOH (pH 8.5) at 37°C, the ThT fluorescence was continually measured for 24 h at 30 min intervals. […] Fluorescence emission at485 nm was measured on a Spectra MAX GeminiXS fluorometerat an excitation wavelength of 450 nm. […]
# T1 sequence (P22303 32-614): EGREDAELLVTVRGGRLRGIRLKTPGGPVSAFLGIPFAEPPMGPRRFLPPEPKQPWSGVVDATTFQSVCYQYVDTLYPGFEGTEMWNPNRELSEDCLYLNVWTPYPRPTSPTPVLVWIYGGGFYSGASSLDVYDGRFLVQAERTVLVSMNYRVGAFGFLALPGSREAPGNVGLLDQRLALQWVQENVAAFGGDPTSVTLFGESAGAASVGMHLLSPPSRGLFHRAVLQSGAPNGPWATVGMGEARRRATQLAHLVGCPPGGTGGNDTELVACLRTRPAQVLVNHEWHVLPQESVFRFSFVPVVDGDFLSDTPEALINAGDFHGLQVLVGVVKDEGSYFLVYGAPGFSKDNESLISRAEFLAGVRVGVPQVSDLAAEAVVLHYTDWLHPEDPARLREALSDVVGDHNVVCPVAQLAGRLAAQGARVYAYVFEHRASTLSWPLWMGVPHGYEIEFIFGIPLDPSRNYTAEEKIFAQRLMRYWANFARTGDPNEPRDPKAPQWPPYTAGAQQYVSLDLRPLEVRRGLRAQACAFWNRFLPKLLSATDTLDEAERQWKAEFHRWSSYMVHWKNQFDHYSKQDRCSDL
compound,measurement,value
"CCN(C)C(=O)Oc1cccc(/C=C2\Cc3cc(OC)c(OC)cc3C2=O)c1 [AP5, (E)-3-((5,6-dimethoxy-1-oxo-1,3-dihydro-2H-inden-2-ylidene)-methyl)phenylethyl(methyl)carbamate]","ThT intensity, AChE-induced Aβ40 fibril formation",substantially lowered the ThT intensity in a dose-dependent manner
